We go through 31 compounds from ChEMBL document CHEMBL3046383, “Enantioselective Herbicidal Activity of Chiral α-Methylbenzylphenylureas against Cyperaceae and Echinochloa Paddy Weeds” (Biosci Biotechnol Biochem, 1998).

Calls of active or inactive are those of the source. How the calls were made is not given here.

The subject of one data set is Cyperus serotinus. As to the kind of experiment: Herbicidal activity against Cyperus serotinus assessed as phytotoxic activity ratings (0- no effect to 5-complete killing rating scale) at 3.1 to 100 g/a measured after 3 weeks post compound treatment under green house conditions. In kind it is functional.
Data set [1] deals with Schoenoplectiella juncoides. The experiment in a line: Herbicidal activity against Schoenoplectiella juncoides var. Hotarui Ohwi assessed as phytotoxic activity ratings (0- no effect to 5-complete killing rating scale) at 100 g/a measured after 3 weeks post compound treatment under green house conditions. Type of data set: functional.
The next data set has as its system Cyperus difformis. As to the kind of experiment: Herbicidal activity against Cyperus difformis assessed as phytotoxic activity ratings (0- no effect to 5-complete killing rating scale) at 100 g/a measured after 3 weeks post compound treatment under green house conditions. Type of data set: functional.
In another data set the test system is Echinochloa oryzicola. The experiment in a line: Herbicidal activity against Echinochloa oryzicola assessed as phytotoxic activity ratings (0- no effect to 5-complete killing rating scale) at 100 g/a measured after 3 weeks post compound treatment under green house conditions. Type of data set: functional.
Data set [2] relates to Oryza sativa. The experiment in a line: Phytotoxicity against directly seeded Oryza sativa (rice) seedlings assessed as phytotoxic activity ratings (0- no effect to 5-complete killing rating scale) at 100 g/a measured after 3 weeks post compound treatment under green house conditions. In kind it is organism-based. The following applies: in vivo, 504 h.
Data set [3] relates to Oryza sativa. As to the kind of experiment: Phytotoxicity against transplanted Oryza sativa (rice) seedlings assessed as phytotoxic activity ratings (0- no effect to 5-complete killing rating scale) at 100 g/a measured after 3 weeks post compound treatment under green house conditions. In kind it is organism-based. Particulars: in vivo, 504 h.

Consider `C[C@@H](NC(=O)Nc1ccc(C(C)(C)C)cc1)c1ccccc1`, for which, in the data set on Cyperus serotinus, the outcome was inactive. Besides, the Activity is reported as 0% in data set [1]; 0% with Cyperus difformis; 10% in the data set with Echinochloa oryzicola; 0% in the data set on Oryza sativa [2]; 0% with Oryza sativa [3].

For the compound `CC(=O)c1cccc(NC(=O)N[C@H](C)c2ccccc2)c1`, the outcome in the data set on Cyperus serotinus was inactive. In addition, the Activity (in data set [1]; in the data set on Cyperus difformis; in the data set on Echinochloa oryzicola; in the data set on Oryza sativa [2]; in the data set on Oryza sativa [3]) was 0% in each case.

With `C[C@@H](NC(=O)Nc1cccc(Cl)c1Cl)c1ccccc1`, the outcome in the data set with Cyperus serotinus was inactive. The Activity (in data set [1]; in the data set on Cyperus difformis; with Echinochloa oryzicola; with Oryza sativa [2]; in the data set on Oryza sativa [3]) was 0% in each case.

As for `C[C@@H](NC(=O)Nc1ccc(Cl)c(Cl)c1)c1ccccc1`, the outcome in the data set with Cyperus serotinus was inactive. In addition, the Activity (in data set [1]; in the data set with Cyperus difformis; in the data set with Echinochloa oryzicola; with Oryza sativa [2]; in the data set on Oryza sativa [3]) was 0% in each case.

For the compound `C[C@@H](NC(=O)Nc1ccc(C(F)(F)F)cc1)c1ccccc1`, the outcome in the data set on Cyperus serotinus was inactive. Further, the Activity (in data set [1]; with Cyperus difformis; in the data set with Echinochloa oryzicola; with Oryza sativa [2]; in the data set on Oryza sativa [3]) was 0% each time.

In the case of `CCc1cccc(CC)c1NC(=O)N[C@@H](C)c1ccccc1`, in the data set on Cyperus serotinus, the result was inactive. Moreover, the Activity (in data set [1]; with Cyperus difformis; in the data set on Echinochloa oryzicola; in the data set with Oryza sativa [2]; in the data set on Oryza sativa [3]) was 0% throughout.

With `C[C@@H](NC(=O)Nc1cccc(F)c1F)c1ccccc1`, the result in the data set on Cyperus serotinus was inactive. Besides, the Activity in data set [1] is on record as 0%; in the data set with Cyperus difformis, 10%; with Echinochloa oryzicola it was 0%; with Oryza sativa [2] it was 0%; in the data set with Oryza sativa [3], 0%.

With `C[C@@H](NC(=O)Nc1ccccc1I)c1ccccc1`, the outcome in the data set on Cyperus serotinus was inactive. Further, the Activity in the data set on Cyperus difformis amounted to 10%; in the data set with Echinochloa oryzicola, 0%; in the data set with Oryza sativa [2], 0%; with Oryza sativa [3] it was 0%.

As for `C[C@H](NC(=O)Nc1ccc(I)cc1)c1ccccc1`, in the data set on Cyperus serotinus, the outcome was inactive. The Activity (in data set [1]; in the data set with Cyperus difformis; with Echinochloa oryzicola; in the data set with Oryza sativa [2]; in the data set with Oryza sativa [3]) was 0% in each case.

For the compound `COc1ccccc1NC(=O)N[C@@H](C)c1ccccc1`, the outcome in the data set with Cyperus serotinus was inactive. Besides, the Activity (in data set [1]; with Cyperus difformis; in the data set on Echinochloa oryzicola; in the data set on Oryza sativa [2]; with Oryza sativa [3]) was 0% throughout.

With `C[C@@H](NC(=O)Nc1ccccc1Br)c1ccccc1`, the result in the data set on Cyperus serotinus was inactive. For the same compound, the Activity in data set [1] amounted to 0%; in the data set on Cyperus difformis, 10%; with Echinochloa oryzicola, 0%; in the data set on Oryza sativa [2], 0%; with Oryza sativa [3] it was 0%.

On to `C[C@H](NC(=O)Nc1cc(C(C)(C)C)ccc1C(C)(C)C)c1ccccc1`, for which the result with Cyperus serotinus was inactive. Also, the Activity in the data set with Cyperus difformis, in the data set on Echinochloa oryzicola, in the data set with Oryza sativa [2] and in the data set on Oryza sativa [3] was 0% throughout.

Regarding `C[C@H](NC(=O)Nc1ccc(F)c(F)c1)c1ccccc1`, the result in the data set on Cyperus serotinus was inactive. Further, the Activity (in data set [1]; in the data set with Cyperus difformis; with Echinochloa oryzicola; in the data set on Oryza sativa [2]; with Oryza sativa [3]) was 0% throughout.

For `Cc1ccc(NC(=O)N[C@H](C)c2ccccc2)c(F)c1`, the outcome in the data set with Cyperus serotinus was inactive. In addition, the Activity (in data set [1]; with Cyperus difformis; with Echinochloa oryzicola; in the data set on Oryza sativa [2]; with Oryza sativa [3]) was 0% each time.

As for `CCOC(=O)c1ccccc1NC(=O)N[C@H](C)c1ccccc1`, in the data set with Cyperus serotinus, the outcome was inactive. The Activity (in data set [1]; with Cyperus difformis; in the data set on Echinochloa oryzicola; in the data set on Oryza sativa [2]; with Oryza sativa [3]) was 0% throughout.

Take `C[C@@H](NC(=O)Nc1ccccc1Cl)c1ccccc1`: the outcome in the data set with Cyperus serotinus was inactive. In addition, the Activity in data set [1] is on record as 0%; in the data set with Cyperus difformis it was 10%; in the data set with Echinochloa oryzicola, 0%; with Oryza sativa [2] it was 0%; in the data set on Oryza sativa [3], 0%.

As for `CCCCCc1ccc(NC(=O)N[C@H](C)c2ccccc2)cc1`, in the data set with Cyperus serotinus, the outcome was inactive. Moreover, the Activity (in data set [1]; in the data set with Cyperus difformis; in the data set with Echinochloa oryzicola; in the data set with Oryza sativa [2]; with Oryza sativa [3]) was 0% each time.

With `C[C@@H](NC(=O)Nc1ccc(I)cc1)c1ccccc1`, in the data set on Cyperus serotinus, the outcome was inactive. Also, the Activity (in data set [1]; with Cyperus difformis; in the data set on Echinochloa oryzicola; with Oryza sativa [2]; with Oryza sativa [3]) was 0% in each case.

Take `C[C@H](NC(=O)Nc1cccc(C(F)(F)F)c1F)c1ccccc1`: in the data set with Cyperus serotinus, the result was inactive. The Activity (in data set [1]; in the data set with Cyperus difformis; in the data set on Echinochloa oryzicola; with Oryza sativa [2]; in the data set on Oryza sativa [3]) was 0% each time.

As for `COc1ccccc1NC(=O)N[C@H](C)c1ccccc1`, in the data set on Cyperus serotinus, the outcome was inactive. Further, the Activity (in data set [1]; in the data set on Cyperus difformis; in the data set with Echinochloa oryzicola; in the data set with Oryza sativa [2]; in the data set on Oryza sativa [3]) was 0% each time.

With `C[C@H](NC(=O)Nc1cc(C(F)(F)F)ccc1F)c1ccccc1`, in the data set with Cyperus serotinus, the outcome was inactive. The Activity (in data set [1]; with Cyperus difformis; in the data set on Echinochloa oryzicola; with Oryza sativa [2]; with Oryza sativa [3]) was 0% throughout.

Take `CCCCCCCc1ccc(NC(=O)N[C@@H](C)c2ccccc2)cc1`: in the data set on Cyperus serotinus, the result was inactive. Further, the Activity (in data set [1]; in the data set on Cyperus difformis; in the data set with Echinochloa oryzicola; in the data set on Oryza sativa [2]; with Oryza sativa [3]) was 0% each time.

As for `C[C@@H](NC(=O)Nc1cc(F)cc(F)c1)c1ccccc1`, in the data set with Cyperus serotinus, the outcome was inactive. Further, the Activity (in data set [1]; with Cyperus difformis; in the data set with Echinochloa oryzicola; in the data set with Oryza sativa [2]; in the data set with Oryza sativa [3]) was 0% throughout.

Regarding `C[C@H](NC(=O)Nc1ccccc1I)c1ccccc1`, the result in the data set on Cyperus serotinus was inactive. Also, the Activity amounted to 0% in data set [1]; 10% in the data set on Cyperus difformis; 0% with Echinochloa oryzicola; 0% with Oryza sativa [2]; 0% with Oryza sativa [3].

As to `C[C@H](NC(=O)Nc1ccc(F)cc1F)c1ccccc1`, in the data set with Cyperus serotinus, the outcome was inactive. Besides, the Activity (in data set [1]; in the data set with Cyperus difformis; in the data set with Echinochloa oryzicola; with Oryza sativa [2]; in the data set on Oryza sativa [3]) was 0% each time.

Turning to `C[C@H](NC(=O)Nc1ccc(F)cc1)c1ccccc1`, in the data set on Cyperus serotinus, the outcome was inactive. For the same compound, the Activity (in data set [1]; in the data set with Cyperus difformis; in the data set on Echinochloa oryzicola; in the data set on Oryza sativa [2]; with Oryza sativa [3]) was 0% each time.

Consider `C[C@@H](NC(=O)Nc1cccc(I)c1)c1ccccc1`, for which, in the data set on Cyperus serotinus, the result was inactive. Moreover, the Activity in data set [1] stood at 0%; in the data set with Cyperus difformis, 10%; in the data set with Echinochloa oryzicola it was 0%; with Oryza sativa [2], 0%; in the data set with Oryza sativa [3], 0%.

With `CCCc1ccc(NC(=O)N[C@@H](C)c2ccccc2)cc1`, the Activity in data set [1] turned out to be 0%; with Cyperus difformis, 40%; in the data set on Echinochloa oryzicola, 10%; with Oryza sativa [2], 0%; in the data set with Oryza sativa [3] it was 0%.

With `C[C@@H](NC(=O)Nc1cccc(C(F)(F)F)c1F)c1ccccc1`, the result with Cyperus serotinus was inactive. For the same compound, the Activity in the data set with Cyperus difformis, in the data set on Echinochloa oryzicola, in the data set on Oryza sativa [2] and in the data set on Oryza sativa [3] was 0% throughout.

`C[C@H](NC(=O)Nc1cc(F)cc(F)c1)c1ccccc1`: in the data set with Cyperus serotinus, the result was inactive. For the same compound, the Activity in data set [1] amounted to 0%; in the data set with Cyperus difformis, 0%; with Echinochloa oryzicola it was 10%; with Oryza sativa [3] it was 0%.

Consider `C[C@H](NC(=O)Nc1ccc(Br)cc1)c1ccccc1`, for which, in the data set with Cyperus serotinus, the result was inactive. In addition, the Activity in the data set with Cyperus difformis, with Echinochloa oryzicola, with Oryza sativa [2] and with Oryza sativa [3] was 0% in each case.
